Measurements as given in ChEMBL document CHEMBL1147253, “New polyoxygenated farnesylcyclohexenones, deacetoxyyanuthone A and its hydro derivative from the marine-derived fungus Penicillium sp” (2003).
Converted amounts (≈) assume the structure as drawn.

Tests used:
Assay type in all cases: functional
Settings in all cases: read-out: ED50 (the source's name)
SK-MEL-2 = assay: Cytotoxicity against human SK-MEL-2 cells
XF498 = assay: Cytotoxicity against human XF498 cells
HCT-15 = assay: Cytotoxicity against human HCT15 cells
A549 = assay: Cytotoxicity against human A549 cells
SK-OV-3 = assay: Cytotoxicity against human SKOV3 cells

CC(C)=CCC/C(C)=C/CC/C(C)=C/C[C@@]12O[C@@H]1[C@H](O)C(C)=CC2=O
EC50 (SK-MEL-2): 3.86 µg/mL (≈ 11.2 µM)
EC50 (XF498): 10 µg/mL (≈ 29.1 µM)
EC50 (HCT-15): 10.1 µg/mL (≈ 29.2 µM)
EC50 (A549): 7.74 µg/mL (≈ 22.5 µM)
EC50 (SK-OV-3): 6.35 µg/mL (≈ 18.4 µM)

CC(C)=CCC/C(C)=C\CC/C(C)=C\Cc1cc(O)c(C)cc1O
EC50 (SK-MEL-2): 4.8 µg/mL (≈ 14.6 µM)
EC50 (XF498): 5.94 µg/mL (≈ 18.1 µM)
EC50 (HCT-15): 6.11 µg/mL (≈ 18.6 µM)
EC50 (A549): 4.73 µg/mL (≈ 14.4 µM)
EC50 (SK-OV-3): 5.31 µg/mL (≈ 16.2 µM)

CC(C)=CCC/C(C)=C\CC/C(C)=C\CC1=CC(=O)C(C)=CC1=O
EC50 (SK-MEL-2): 18.4 µg/mL (≈ 56.4 µM)
EC50 (XF498): 38.1 µg/mL (≈ 117 µM)
EC50 (HCT-15): 42.6 µg/mL (≈ 130 µM)
EC50 (A549): 25.4 µg/mL (≈ 77.9 µM)
EC50 (SK-OV-3): 37.3 µg/mL (≈ 114 µM)

COc1cccc2c1C(=O)c1c(O)c3c(c(O)c1C2=O)C[C@@](O)(C(=O)CO)C[C@@H]3O[C@H]1C[C@H](N)[C@H](O)[C@H](C)O1 [DOXORUBICIN]
EC50 (SK-MEL-2): 0.04 µg/mL (≈ 0.0736 µM)
EC50 (XF498): 0.02 µg/mL (≈ 0.0368 µM)
EC50 (HCT-15): 0.79 µg/mL (≈ 1.45 µM)
EC50 (A549): 0.02 µg/mL (≈ 0.0368 µM)
EC50 (SK-OV-3): 0.09 µg/mL (≈ 0.166 µM)
